Read-outs that look alike come from different tables or passages of the source.
How the values were obtained:
[1] = Phase I/IIa Group A: pharmacokinetics in healthy subjects; type: in vivo, human; details: human, plasma, oral, healthy subjects
Experimental: The phase I/IIa study was designed to evaluate safety and tolerability, pharmacokinetics (PK), food effect, and antiviral activity with regard to the Compound. The key safety parameters that were evaluated in the trial include adverse events (AEs), physical examination, vital signs, 12-lead electrocardiogram (ECG), and standard safety laboratory tests. The key antiviral activity parameters that were evaluated in the trial include changes in plasma HCV RNA and emergence of resistance mutations. The key pharmacokinetic parameters that were evaluated in the trial include plasma and urine concentrations of the Compound. […]
The Compound was first evaluated in a randomized, double-blind, placebo-controlled, sequential dose escalation study in 48 healthy subjects. For each cohort, there were 6 subjects to receive the Compound and 2 subjects to receive placebo. Except cohort 5a, the Compound was administered under fasted conditions.
For the food effect study (cohort 5a), subjects received a single dose of 50 mg of the Compound or placebo on Days 1 and 8, with a 7 day washout between dosing periods. In the food effect study, the subjects were randomized among two groups, differing by fasted/fed dosing sequences as shown in Table 3.

HCV Genotype 4 = assay: Phase I/IIa Group D: HCV RNA reduction, 3-day dosing, Genotype 4; type: in vivo, hepatitis C virus; details: n = 4
Experimental: (§1) The phase I/IIa study was designed to evaluate safety and tolerability, pharmacokinetics (PK), food effect, and antiviral activity with regard to the Compound. The key safety parameters that were evaluated in the trial include adverse events (AEs), physical examination, vital signs, 12-lead electrocardiogram (ECG), and standard safety laboratory tests. The key antiviral activity parameters that were evaluated in the trial include changes in plasma HCV RNA and emergence of resistance mutations. The key pharmacokinetic parameters that were evaluated in the trial include plasma and urine concentrations of the Compound.
(§2) In the phase I/IIa study, plasma HCV RNA was quantitated using a validated commercial assay (COBAS® TAQMAN®) with a lower limit of quantitation of 25 IU/mL. HCV RNA genotyping was performed at Baseline using the Versant HCV Genotype Assay (LiPA) 2.0.
(§3) In Group D, the Compound was evaluated in an randomized, double-blind, placebo-controlled, parallel dosing study in 30 treatment-naive, genotypes 2, 3, and 4 HCV-infected subjects.
(§4) For all cohorts, dosing was under fasted in this study.

HCV Genotype 1a = assay: Phase I/IIa Group C: HCV RNA reduction, 3-day dosing, Genotype 1a; type: in vivo, hepatitis C virus
Experimental: as §1, §2
In Group C, the Compound was evaluated in a randomized, double-blind, placebo-controlled, parallel dosing study in 34 treatment-naive, genotype 1 HCV-infected subjects.
as §4

HCV Genotype 3 = assay: Phase I/IIa Group B: plasma HCV RNA reduction after single dose, Genotype 3; type: in vivo, hepatitis C virus; details: 1 subject
Experimental: as §1, §2
In Group B, the Compound was evaluated in an open-label, single day study in 18 subjects with chronic HCV Genotype 1, 2, or 3 infection. […] For all cohorts, dosing was under fasted in this study.

[2] = system: genotype 2 replicon with L31M substitution (NS5A M31); assay: HCV replicon model, resistance; type: cell-based, hepatitis C virus
HCV Genotype 2 = assay: Phase I/IIa Group D: HCV RNA reduction, 3-day dosing, Genotype 2; type: in vivo, hepatitis C virus; details: for Mean (Range) Maximal HCV RNA Reduction from Baseline: n = 4
Experimental: as §1, §2, §3, §4

[3] = 10 mg, 10 mg single dose, fasted, PK Day 1, mean ± SD
[4] = 25 mg, 25 mg single dose, fasted, PK Day 1, mean ± SD
[5] = 50 mg, 50 mg single dose, fasted, PK Day 1, mean ± SD
[6] = 50 mg, 50 mg single dose, fed, PK Day 1, mean ± SD
[7] = 100 mg, 100 mg QD x 7 days, fasted, PK Day 7, mean ± SD
[8] = 100 mg, 100 mg single dose, fasted, PK Day 1, mean ± SD

`COC(=O)N[C@H](C(=O)N1CCC[C@H]1c1nc2cc(-c3csc4c(-c5ccc(-c6cnc([C@@H]7CCCN7C(=O)[C@H](NC(=O)OC)c7ccccc7)[nH]6)cc5)csc34)ccc2[nH]1)C(C)C` [the Compound, [(S)-1-((S)-2-{6-[6-(4-{(S)-2-[1-((R)-2-methoxycarbonylamino-2-phenyl-acetyl)-pyrrolidin-2-yl]-3H-imidazol-4-yl}-phenyl)-thieno[3,2-b]thiophen-3-yl]-1H-benzoimidazol-2-yl}-pyrrolidine-1-carbonyl)-2-methyl-propyl]-carbamic acid methyl ester] gave an AUC(0-inf) ([1]; 5 mg, 5 mg single dose, fasted, PK Day 1, mean ± SD, read-out: AUC0-inf) of 110 ± 35.4 ng·h/mL, a Tmax ([1]; 5 mg, 5 mg single dose, fasted, PK Day 1, median (min-max)) of 4 h and a Cmax [1, 3] of 11.5 ± 4.3 ng/mL. For the same molecule, the half-life [1, 3] was 24 ± 4.7 h, the AUC(0-inf) ([1]; 10 mg, 10 mg single dose, fasted, PK Day 1, mean ± SD, read-out: AUC0-inf) was 259 ± 123 ng·h/mL and the Tmax ([1]; 10 mg, 10 mg single dose, fasted, PK Day 1, median (min-max)) was 5 h. The Cmax [1, 4] was 26.5 ± 11.1 ng/mL, the half-life [1, 4] was 24 ± 3.2 h and the AUC(0-inf) ([1]; 25 mg, 25 mg single dose, fasted, PK Day 1, mean ± SD, read-out: AUC0-inf) was 570 ± 200 ng·h/mL. It also gave a Tmax ([1]; 25 mg, 25 mg single dose, fasted, PK Day 1, median (min-max)) of 4 h, a Cmax [1, 5] of 50.9 ± 18.1 ng/mL and a half-life [1, 5] of 22 ± 1.7 h. The AUC(0-inf) ([1]; 50 mg, 50 mg single dose, fasted, PK Day 1, mean ± SD, read-out: AUC0-inf) was 952 ± 336 ng·h/mL, the Tmax ([1]; 50 mg, 50 mg single dose, fasted, PK Day 1, median (min-max)) was 4 h and the Cmax [1, 6] was 13.2 ± 3.3 ng/mL. For the same molecule, the half-life [1, 6] was 23 ± 3 h, the AUC(0-inf) ([1]; 50 mg, 50 mg single dose, fed, PK Day 1, mean ± SD, read-out: AUC0-inf) was 335 ± 53.9 ng·h/mL and the Tmax ([1]; 50 mg, 50 mg single dose, fed, PK Day 1, median (min-max)) was 6 h. For the same molecule, the Cmax ([1]; 100 mg, 100 mg QD x 7 days, fasted, PK Day 1, mean ± SD) was 86.9 ± 25.9 ng/mL, the Tmax ([1]; 100 mg, 100 mg QD x 7 days, fasted, PK Day 1, median (min-max)) was 4 h and the Cmax [1, 7] was 117 ± 39.4 ng/mL. It also gave a half-life [1, 7] of 21 ± 3.4 h, an AUC(0-inf) ([1]; 100 mg, 100 mg QD x 7 days, fasted, PK Day 7, mean ± SD, read-out: AUC0-inf (cell marked with footnote 1)) of 1480 ± 489 ng·h/mL and a Tmax ([1]; 100 mg, 100 mg QD x 7 days, fasted, PK Day 7, median (min-max)) of 3.5 h. The Cmax [1, 8] was 83.3 ± 49.1 ng/mL, the half-life [1, 8] was 23 ± 2.7 h and the AUC(0-inf) ([1]; 100 mg, 100 mg single dose, fasted, PK Day 1, mean ± SD, read-out: AUC0-inf) was 1290 ± 402 ng·h/mL. For the same molecule, the Tmax ([1]; 100 mg, 100 mg single dose, fasted, PK Day 1, median (min-max)) was 4 h, the “Mean (Range) Maximal HCV RNA Reduction from Baseline” value (HCV Genotype 4; 50 mg BID x 3 days) was 3.9 (3.4-4.5) log10 IU/mL and the “Mean (Range) Maximal HCV RNA Reduction from Baseline” value (HCV Genotype 4; 100 mg QD x 3 days) was 3.6 (2.3-4.6) log10 IU/mL. For the same molecule, the “Mean (Range) Maximal HCV RNA Reduction from Baseline” value (HCV Genotype 1a; 25 mg QD x 3 days, n = 5) was 3.3 (2.9-3.7) log10 IU/mL, the “Mean (Range) Maximal HCV RNA Reduction from Baseline” value (HCV Genotype 1a; 50 mg BID x 3 days, n = 6) was 3.2 (2.7-3.8) log10 IU/mL and the “Mean (Range) Maximal HCV RNA Reduction from Baseline” value (HCV Genotype 1a; 50 mg QD x 3 days, n = 6) was 3.6 (3.3-3.9) log10 IU/mL. For the same molecule, the “Mean (Range) Maximal HCV RNA Reduction from Baseline” value (HCV Genotype 1a; 100 mg QD x 3 days, n = 6) was 3.5 (2.6-4.3) log10 IU/mL, the “Maximum Viral Load Reduction after Single Dose” value (“Maximum Viral Load Reduction” below) (HCV Genotype 3; 25 mg single dose) was 2.2 log10 IU/mL and the “Maximum Viral Load Reduction” value (HCV Genotype 3; 50 mg single dose) was 3.7 log10 IU/mL. For the same molecule, the “Maximum Viral Load Reduction” value (HCV Genotype 3; 100 mg single dose) was 3.3 log10 IU/mL, the “resistance conferred by L31M substitution (NS5A M31 polymorphism)” value [2] was 75 fold and the “Mean (Range) Maximal HCV RNA Reduction from Baseline” value (HCV Genotype 2; 50 mg BID x 3 days) was 2.0 (0.5-4.0) log10 IU/mL. For the same molecule, the “Mean (Range) Maximal HCV RNA Reduction from Baseline” value (HCV Genotype 2; 100 mg QD x 3 days) was 2.0 (0.3-4.1) log10 IU/mL, the “Mean Max Viral Load Response” value (HCV Genotype 2; subjects with L31 at BL, L31M at Day 4, 2 subjects) was −2.83 log10 IU/mL and the “Mean Max Viral Load Response” value (HCV Genotype 2; subjects with L31 at BL, low VL at Day 4 (<1,000 IU/mL), 2 subjects) was −4.06 log10 IU/mL. The “Mean Max Viral Load Response” value (HCV Genotype 2; subjects with M31 at BL, 3 subjects) was −0.45 log10 IU/mL and the “mean maximal viral load reduction” value (HCV Genotype 2; total daily dose of 100 mg for 3 days) was 2.0 log10 IU/mL.

Source: patent US20150224085A1, “METHOD OF ADMINISTERING A 5,5-FUSED HETEROARYLENE HEPATITIS C VIRUS INHIBITOR FOR TREATING OF PREVENTING HEPATITIS C VIRUS INFECTION” (priority 2012, published 2015)
